What was measured:
Galectin-1 = Galectin-1 (Homo sapiens (Human), UniProt P09382); assay: Fluorescence anisotropy assay, inhibition of galectin / fluorescein tagged saccharide probe interaction; type: binding
Galectin-3 = Galectin-3 (Homo sapiens (Human), UniProt P17931); assay: as above; type: binding
Experimental: Experimental Procedures (Evaluation of Kd Values)
The affinity of Example 1-33 for galectins were determined by a fluorescence anisotropy assay where the compound was used as an inhibitor of the interaction between galectin and a fluorescein tagged saccharide probe as described Sörme, P., Kahl-Knutsson, B., Huflejt, M., Nilsson, U. J., and Leffler H. (2004) Fluorescence polarization as an analytical tool to evaluate galectin-ligand interactions. Anal. Biochem. 334: 36-47, (Sörme et al., 2004) and Monovalent interactions of Galectin-1 By Salomonsson, Emma; Larumbe, Amaia; Tejler, Johan; Tullberg, Erik; Rydberg, Hanna; Sundin, Anders; Khabut, Areej; Frejd, Torbjorn; Lobsanov, Yuri D.; Rini, James M.; et al, From Biochemistry (2010), 49(44), 9518-9532, (Salomonsson et al., 2010).

galectins = conditions: cited from earlier work

Sequence of Galectin-1 (P09382 whole entry): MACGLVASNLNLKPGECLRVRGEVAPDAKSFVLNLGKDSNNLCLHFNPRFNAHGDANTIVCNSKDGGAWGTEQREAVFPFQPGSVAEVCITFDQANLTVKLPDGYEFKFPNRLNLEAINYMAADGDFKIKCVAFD
Sequence of Galectin-3 (P17931 whole entry): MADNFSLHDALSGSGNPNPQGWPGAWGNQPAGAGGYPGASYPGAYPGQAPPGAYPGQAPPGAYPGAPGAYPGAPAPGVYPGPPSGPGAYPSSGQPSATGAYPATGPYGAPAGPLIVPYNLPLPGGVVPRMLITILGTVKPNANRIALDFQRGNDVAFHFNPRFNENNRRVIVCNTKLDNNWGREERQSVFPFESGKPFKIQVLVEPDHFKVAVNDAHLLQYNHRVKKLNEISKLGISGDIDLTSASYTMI

Row | Kd (Galectin-1) | Kd (Galectin-3) | SMILES | affinity relative to lactose (galectins; compared with lactose) | Kd (galectins; Leffler, 2001, Leffler et al., 2004, read-out: Kd, all galectins)
1 | 0.056 µM | 6 µM | OC[C@H]1O[C@H](Sc2cc(Cl)c(Cl)c(Cl)c2)[C@H](O)[C@@H](n2cc(-c3csc(O)n3)nn2)[C@H]1O [Example 20, 3,4,5-trichlorophenyl 3-deoxy-3-[4-(2-hydroxythiazol-4-yl)-1H-1,2,3-triazol-1-yl]-1-thio-α-D-galactopyranoside] | – | –
2 | 0.082 µM | 6.6 µM | Cc1ccc(S[C@H]2O[C@H](CO)[C@H](O)[C@H](n3cc(-c4csc(O)n4)nn3)[C@H]2O)cc1Cl [Example 26, 3-Chloro-4-methylphenyl 3-deoxy-3-[4-(2-hydroxythiazol-4-yl)-1H-1,2,3-triazol-1-yl]-1-thio-α-D-galactopyranoside] | – | –
3 | 0.046 µM | 5.7 µM | O=C(O)c1ncc(Cl)cc1S[C@H]1O[C@H](CO)[C@H](O)[C@H](n2cc(-c3csc(O)n3)nn2)[C@H]1O [Example 28, 2-carboxy-5-chloropyridyl 3-deoxy-3-[4-(2-hydroxythiazol-4-yl)-1H-1,2,3-triazol-1-yl]-1-thio-α-D-galactopyranoside] | – | –
4 | 0.071 µM | 6.5 µM | OC[C@H]1O[C@H](Sc2ccc(C(F)(F)F)c(Cl)c2)[C@H](O)[C@@H](n2cc(-c3csc(O)n3)nn2)[C@H]1O [Example 24, 3-Chloro-4-trifluoromethylphenyl 3-deoxy-3-[4-(2-hydroxythiazol-4-yl)-1H-1,2,3-triazol-1-yl]-1-thio-α-D-galactopyranoside] | – | –
5 | 0.038 µM | 8 µM | N#Cc1ncc(S[C@H]2O[C@H](CO)[C@H](O)[C@H](n3cc(-c4csc(O)n4)nn3)[C@H]2O)cc1Cl [Example 13, 5-Chloro-6-cyano-pyridine-3-yl 3-deoxy-3-[4-(2-hydroxythiazol-4-yl)-1H-1,2,3-triazol-1-yl]-1-thio-α-D-galactopyranoside] | – | –
6 | 0.054 µM | 1.7 µM | CN(C)C(=O)c1ncc(Cl)cc1S[C@H]1OC(CO)[C@H](O)[C@H](n2cc(-c3csc(O)n3)nn2)C1O (stereo partly drawn) [Example 33, 5-Chloro-N,N′-dimethyl-picolinamide-3-yl 3-deoxy-3-[4-(2-hydroxythiazol-4-yl)-1H-1,2,3-triazol-1-yl]-1-thio-α-D-galactopyranoside] | – | –
7 | 0.49 µM | 1.4 µM | OC[C@H]1O[C@H](Sc2ccc(Cl)c(Cl)c2)[C@H](O)[C@@H](n2cc(-c3csc(Cl)n3)nn2)[C@H]1O [Example 7, 3,4-Dichlorophenyl 3-[4-(2-chlorothiazol-4-yl)-1H-1,2,3-triazol-1-yl]-3-deoxy-1-thio-α-D-galactopyranoside] | – | –
8 | 0.006 µM | 2.2 µM | N#Cc1ncc(Cl)cc1S[C@H]1O[C@H](CO)[C@H](O)[C@H](n2cc(-c3csc(O)n3)nn2)[C@H]1O [Example 16, 5-Chloro-2-cyano-3-pyridyl 3-deoxy-3-[4-(2-hydroxythiazol-4-yl)-1H-1,2,3-triazol-1-yl]-1-thio-α-D-galactopyranoside] | – | –
9 | 0.063 µM | 6 µM | N#Cc1ccc(S[C@H]2O[C@H](CO)[C@H](O)[C@H](n3cc(-c4csc(O)n4)nn3)[C@H]2O)cc1Br [Example 22, 3-Bromo-4-cyanophenyl 3-deoxy-3-[4-(2-hydroxythiazol-4-yl)-1H-1,2,3-triazol-1-yl]-1-thio-α-D-galactopyranoside] | – | –
10 | 0.05 µM | 4.6 µM | OC[C@H]1O[C@H](Sc2cc(Br)c(F)c(Br)c2)[C@H](O)[C@@H](n2cc(-c3csc(O)n3)nn2)[C@H]1O [Example 21, 3,5-dibromo-4-fluorophenyl 3-deoxy-3-[4-(2-hydroxythiazol-4-yl)-1H-1,2,3-triazol-1-yl]-1-thio-α-D-galactopyranoside] | – | –
11 | 0.028 µM | 2.8 µM | OC[C@H]1O[C@H](Sc2cnc(C(F)(F)F)c(Cl)c2)[C@H](O)[C@@H](n2cc(-c3csc(O)n3)nn2)[C@H]1O [Example 17, 5-Chloro-6-trifluoromethyl-pyridin-3-yl 3-deoxy-3-[4-(2-hydroxythiazol-4-yl)-1H-1,2,3-triazol-1-yl]-1-thio-α-D-galactopyranoside] | – | –
12 | 0.033 µM | 2.6 µM | N#Cc1ncc(Br)cc1S[C@H]1O[C@H](CO)[C@H](O)[C@H](n2cc(-c3csc(O)n3)nn2)[C@H]1O [Example 14, 5-Bromo-2-cyano-pyridine-3-yl 3-deoxy-3-[4-(2-hydroxythiazol-4-yl)-1H-1,2,3-triazol-1-yl]-1-thio-α-D-galactopyranoside] | – | –
13 | 0.044 µM | 2.1 µM | CN(C)C(=O)c1ccc(Cl)cc1S[C@H]1OC(CO)[C@H](O)[C@H](n2cc(-c3csc(O)n3)nn2)C1O (stereo partly drawn) [Example 32, 4-Chloro-N,N′-dimethylbenzamide-2-yl 3-deoxy-3-[4-(2-hydroxythiazol-4-yl)-1H-1,2,3-triazol-1-yl]-1-thio-α-D-galactopyranoside] | – | –
14 | 0.013 µM | 4.6 µM | OC[C@H]1O[C@H](Sc2cc(Cl)c(Cl)cc2F)[C@H](O)[C@@H](n2cc(-c3csc(O)n3)nn2)[C@H]1O [Example 31, 3,4-Dichloro-6-fluoro-phenyl 3-deoxy-3-[4-(2-hydroxythiazol-4-yl)-1H-1,2,3-triazol-1-yl]-1-thio-α-D-galactopyranoside] | – | –

Continued, compound first:

Row | SMILES | Kd (Galectin-1) | Kd (Galectin-3) | affinity relative to lactose (galectins; compared with lactose) | Kd (galectins; Leffler, 2001, Leffler et al., 2004, read-out: Kd, all galectins)
15 | N#Cc1ncc(S[C@H]2O[C@H](CO)[C@H](O)[C@H](n3cc(-c4csc(O)n4)nn3)[C@H]2O)cc1Br [Example 15, 5-Bromo-6-cyano-3-pyridyl 3-deoxy-3-[4-(2-hydroxythiazol-4-yl)-1H-1,2,3-triazol-1-yl]-1-thio-α-D-galactopyranoside] | 0.019 µM | 2.8 µM | – | –
16 | N#Cc1ncc(Cl)cc1S[C@H]1O[C@H](CO)[C@H](O)[C@H](n2cc(-c3nc(Cl)cs3)nn2)[C@H]1O [Example 5, 5-Chloro-2-cyano-pyridine-3-yl 3-[4-(4-chlorothiazol-2-yl)-1H-1,2,3-triazol-1-yl]-3-deoxy-1-thio-α-D-galactopyranoside] | 0.095 µM | 0.22 µM | – | –
17 | N#Cc1ncc(S[C@H]2O[C@H](CO)[C@H](O)[C@H](n3cc(-c4nc(Cl)cs4)nn3)[C@H]2O)cc1Br [Example 6, 5-Bromo-6-cyano-3-pyridyl 3-[4-(4-chlorothiazol-2-yl)-1H-1,2,3-triazol-1-yl]-3-deoxy-1-thio-α-D-galactopyranoside] | 0.068 µM | 0.25 µM | – | –
18 | OC[C@H]1O[C@H](Sc2cnc(C(F)(F)F)c(Br)c2)[C@H](O)[C@@H](n2cc(-c3nc(Cl)c(Cl)s3)nn2)[C@H]1O [Example 29, 5-Bromo-6-trifluoromethyl-pyridine-3-yl 3-deoxy-3-[4-(4,5-dichlorothiazol-2-yl)-1H-1,2,3-triazol-1-yl]-1-thio-α-D-galactopyranoside] | 0.39 µM | 0.069 µM | – | –
19 | OC[C@H]1O[C@H](Sc2ccc(Cl)c(Cl)c2)[C@H](O)[C@@H](n2cc(-c3csc(O)n3)nn2)[C@H]1O [Example 12, 3,4-Dichlorophenyl 3-deoxy-3-[4-(2-hydroxythiazol-4-yl)-1H-1,2,3-triazol-1-yl]-1-thio-α-D-galactopyranoside] | 0.058 µM | 8.6 µM | – | –
20 | OC[C@H]1O[C@H](Sc2cc(Cl)c(F)c(Cl)c2)[C@H](O)[C@@H](n2cc(-c3csc(O)n3)nn2)[C@H]1O [Example 18, 3,5-Dichloro-4-fluoro-phenyl 3-deoxy-3-[4-(2-hydroxythiazol-4-yl)-1H-1,2,3-triazol-1-yl]-1-thio-α-D-galactopyranoside] | 0.027 µM | 9.7 µM | – | –
21 | O=C[C@H](O)[C@@H](O)[C@@H](O)[C@H](O)CO [Galactose, D-galactose] | – | – | 50-100 times lower | –
22 | OC[C@H]1O[C@H](Sc2cnc(C(F)(F)F)c(Br)c2)[C@H](O)[C@@H](n2cc(-c3nc(Br)cs3)nn2)[C@H]1O [Example 2, 5-Bromo-6-trifluoromethyl-pyridine-3-yl 3-[4-(4-bromothiazol-2-yl)-1H-1,2,3-triazol-1-yl]-3-deoxy-1-thio-α-D-galactopyranoside] | 0.16 µM | 0.58 µM | – | –
23 | OC[C@H]1O[C@@H](O[C@H]2[C@H](O)[C@@H](O)C(O)O[C@@H]2CO)[C@H](O)[C@@H](O)[C@H]1O (stereo partly shown) [Lactose] | – | – | – | 100 to 1000 µM
24 | OC[C@H]1O[C@H](Sc2cnc(C(F)(F)F)c(Br)c2)[C@H](O)[C@@H](n2cc(-c3nc(Cl)cs3)nn2)[C@H]1O [Example 1, 5-Bromo-6-trifluoromethyl-pyridine-3-yl 3-[4-(4-chlorothiazol-2-yl)-1H-1,2,3-triazol-1-yl]-3-deoxy-1-thio-α-D-galactopyranoside] | 0.11 µM | 0.25 µM | – | –
25 | N#Cc1ncc(S[C@H]2O[C@H](CO)[C@H](O)[C@H](n3cc(-c4nc(Cl)cs4)nn3)[C@H]2O)cc1Cl [Example 3, 5-Chloro-6-cyano-pyridine-3-yl 3-[4-(4-chlorothiazol-2-yl)-1H-1,2,3-triazol-1-yl]-3-deoxy-1-thio-α-D-galactopyranoside] | 0.095 µM | 0.42 µM | – | –
26 | N#Cc1ncc(Br)cc1S[C@H]1O[C@H](CO)[C@H](O)[C@H](n2cc(-c3nc(Cl)cs3)nn2)[C@H]1O [Example 4, 5-Bromo-2-cyano-pyridine-3-yl 3-[4-(4-chlorothiazol-2-yl)-1H-1,2,3-triazol-1-yl]-3-deoxy-1-thio-α-D-galactopyranoside] | 0.085 µM | 0.2 µM | – | –
27 | OC[C@H]1O[C@H](Sc2cnc(C(F)(F)F)c(Br)c2)[C@H](O)[C@@H](n2cc(-c3csc(O)n3)nn2)[C@H]1O [Example 23, 5-Bromo-6-trifluoromethyl-3-pyridyl 3-deoxy-3-[4-(2-hydroxythiazol-4-yl)-1H-1,2,3-triazol-1-yl]-1-thio-α-D-galactopyranoside] | 0.032 µM | 3.1 µM | – | –

From US11046725B2, “Galactoside inhibitor of galectins” (GALECTO BIOTECH AB, priority 2018, dated 2021)
